Laboratory results published in patent US20250026769A1, “PAPD5 INHIBITORS AND METHODS OF USE THEREOF” (The Children's Medical Center Corporation, priority 2021, published 2025).

Biological target: T1, rPAPD5 (Homo sapiens, UniProt Q8NDF8)
T1 construct: made in house
Experiment: differential scanning fluorimetry (DSF) binding and stabilization of rPAPD5
Details: 100 μM test compound; shift vs DMSO control; read-out: ΔTm at 100 μM
Experimental: Binding and stabilization of rPAPD5 by test compounds was determined using differential scanning fluorimetry (DSF). DSF assays were performed to determine protein melting temperature using an indicator dye SYPRO orange (Thermo Fisher Scientific, S6651) diluted 1:5000 in […] of buffer containing […], […] (Jena Biosciences), 25 mM Tris-HCl, 5 mM MgCl2, 50 mM KCl. […] DMSO was used as a negative control. Each curve was an average of three measurements and Thermal Shift software (Thermo Fisher Scientific, 4466038) was used for analysis. […] The change in melting temperature (ΔTm) is in reference to the DMSO control. Referring to Table 2, “+” refers to ΔTm values below 1° C., “++” refers to ΔTm values from 1 to 5° C., and “+++” refers to ΔTm values above 5° C.

T1 sequence (Q8NDF8 68-698 isoform Q8NDF8-5 limits assumed): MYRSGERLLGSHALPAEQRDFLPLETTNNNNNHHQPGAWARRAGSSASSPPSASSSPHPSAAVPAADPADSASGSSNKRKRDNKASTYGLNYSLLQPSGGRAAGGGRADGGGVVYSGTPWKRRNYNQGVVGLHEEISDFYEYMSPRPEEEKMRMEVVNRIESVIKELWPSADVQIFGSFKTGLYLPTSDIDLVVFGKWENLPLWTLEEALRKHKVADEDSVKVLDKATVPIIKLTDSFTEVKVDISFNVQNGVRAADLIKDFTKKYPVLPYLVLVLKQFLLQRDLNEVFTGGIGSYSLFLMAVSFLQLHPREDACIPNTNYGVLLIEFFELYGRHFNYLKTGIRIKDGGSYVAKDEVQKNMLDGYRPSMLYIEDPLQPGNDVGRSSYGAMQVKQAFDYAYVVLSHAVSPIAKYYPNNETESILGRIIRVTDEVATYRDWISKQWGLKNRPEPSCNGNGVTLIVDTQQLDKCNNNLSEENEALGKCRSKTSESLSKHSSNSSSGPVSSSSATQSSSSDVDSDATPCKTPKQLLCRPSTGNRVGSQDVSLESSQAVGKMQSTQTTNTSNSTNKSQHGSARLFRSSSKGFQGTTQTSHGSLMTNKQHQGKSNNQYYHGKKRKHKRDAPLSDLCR

| SMILES | ΔTm at 100 µM [°C] |
| --- | --- |
| CN1CCC(NS(=O)(=O)c2cnc3ccc(Cl)cc3c2Nc2ccccc2C(=O)O)CC1 [Compound 219A, 2-[[6-chloro-3-[(1-methyl-4-piperidyl)sulfamoyl]-4-quinolyl]amino]benzoic acid] | 1 to 5 |
| O=C(O)c1ccccc1Nc1c(S(=O)(=O)N2CCS(=O)(=O)CC2)cnc2ccc(Cl)cc12 [Compound 220A, 2-[[6-chloro-3-[(1,1-dioxo-1,4-thiazinan-4-yl)sulfonyl]-4-quinolyl]amino]benzoic acid] | > 5 |
| O=C(O)c1ccccc1Nc1c(S(=O)(=O)Nc2ccncc2)cnc2ccc(Cl)cc12 [Compound 221A, 2-[[6-chloro-3-(4-pyridylsulfamoyl)-4-quinolyl]amino]benzoic acid] | > 5 |
| NS(=O)(=O)c1ccc(NS(=O)(=O)c2cnc3ccc(Cl)cc3c2Nc2ccccc2C(=O)O)cc1 [Compound 231A, 2-[[6-chloro-3-[(4-sulfamoylphenyl)sulfamoyl]-4-quinolyl]amino]benzoic acid] | > 5 |
| O=C(O)c1ccccc1Nc1c(Br)cnc2ccc(Cl)cc12 [Compound 232A, 2-[(3-bromo-6-chloro-4-quinolyl)amino]benzoic acid] | > 5 |
| O=C(O)c1c(Nc2c(S(=O)(=O)N3CCOCC3)cnc3ccc(Cl)cc23)cccc1-c1ncco1 [Compound 261A, 2-[(6-chloro-3-morpholinosulfonyl-4-quinolyl)amino]-6-oxazol-2-yl-benzoic acid] | < 1 |
| O=C(O)c1cc(B(O)O)ccc1Nc1c(S(=O)(=O)N2CCOCC2)cnc2ccc(Cl)cc12 [Compound 263A, 5-borono-2-[(6-chloro-3-morpholinosulfonyl-4-quinolyl)amino]benzoic acid] | > 5 |
| O=C(O)c1cc(O)ccc1Nc1c(S(=O)(=O)N2CCOCC2)cnc2ccc(Cl)cc12 [Compound 265A, 2-[(6-chloro-3-morpholinosulfonyl-4-quinolyl)amino]-5-hydroxy-benzoic acid] | > 5 |
| O=C(O)c1cc(Br)ccc1Nc1c(S(=O)(=O)N2CCOCC2)cnc2ccc(Cl)cc12 [Compound 268A, 5-bromo-2-[(6-chloro-3-morpholinosulfonyl-4-quinolyl)amino]benzoic acid] | < 1 |
| O=C(O)c1cc(C(F)(F)F)ccc1Nc1c(S(=O)(=O)N2CCOCC2)cnc2ccc(Cl)cc12 [Compound 271A, 2-[(6-chloro-3-morpholinosulfonyl-4-quinolyl)amino]-5-(trifluoromethyl)benzoic acid] | 1 to 5 |
| Cc1ccc(C(=O)O)c(Nc2c(S(=O)(=O)N3CCOCC3)cnc3ccc(Cl)cc23)c1 [Compound 272A, 2-[(6-chloro-3-morpholinosulfonyl-4-quinolyl)amino]-4-methyl-benzoic acid] | > 5 |
| O=C(O)c1ccc(O)cc1Nc1c(S(=O)(=O)N2CCOCC2)cnc2ccc(Cl)cc12 [Compound 273A, 2-[(6-chloro-3-morpholinosulfonyl-4-quinolyl)amino]-4-hydroxy-benzoic acid] | 1 to 5 |
| O=C(O)c1ccc(Cl)cc1Nc1c(S(=O)(=O)N2CCOCC2)cnc2ccc(Cl)cc12 [Compound 274A, 4-chloro-2-[(6-chloro-3-morpholinosulfonyl-4-quinolyl)amino]benzoic acid] | > 5 |
| O=C(O)c1ccc(Br)cc1Nc1c(S(=O)(=O)N2CCOCC2)cnc2ccc(Cl)cc12 [Compound 276A, 4-bromo-2-[(6-chloro-3-morpholinosulfonyl-4-quinolyl)amino]benzoic acid] | > 5 |
| COc1ccc(C(=O)O)c(Nc2c(S(=O)(=O)N3CCOCC3)cnc3ccc(Cl)cc23)c1 [Compound 277A, 2-[(6-chloro-3-morpholinosulfonyl-4-quinolyl)amino]-4-methoxy-benzoic acid] | > 5 |
| O=C(O)c1ccc(C(F)(F)F)cc1Nc1c(S(=O)(=O)N2CCOCC2)cnc2ccc(Cl)cc12 [Compound 278A, 2-[(6-chloro-3-morpholinosulfonyl-4-quinolyl)amino]-4-(trifluoromethyl)benzoic acid] | 1 to 5 |
| O=C(O)c1cccc(O)c1Nc1c(S(=O)(=O)N2CCOCC2)cnc2ccc(Cl)cc12 [Compound 279A, 2-[(6-chloro-3-morpholinosulfonyl-4-quinolyl)amino]-3-hydroxy-benzoic acid] | 1 to 5 |
| O=C(O)c1cccc(Cl)c1Nc1c(S(=O)(=O)N2CCOCC2)cnc2ccc(Cl)cc12 [Compound 280A, 3-chloro-2-[(6-chloro-3-morpholinosulfonyl-4-quinolyl)amino]benzoic acid] | > 5 |
| O=C(O)c1cccc(F)c1Nc1c(S(=O)(=O)N2CCOCC2)cnc2ccc(Cl)cc12 [Compound 281A, 2-[(6-chloro-3-morpholinosulfonyl-4-quinolyl)amino]-3-fluoro-benzoic acid] | > 5 |
| O=C(O)c1cccc(Br)c1Nc1c(S(=O)(=O)N2CCOCC2)cnc2ccc(Cl)cc12 [Compound 282A, 3-bromo-2-[(6-chloro-3-morpholinosulfonyl-4-quinolyl)amino]benzoic acid] | > 5 |
| Cc1cccc(C(=O)O)c1Nc1c(S(=O)(=O)N2CCOCC2)cnc2ccc(Cl)cc12 [Compound 283A, 2-[(6-chloro-3-morpholinosulfonyl-4-quinolyl)amino]-3-methyl-benzoic acid] | > 5 |
| COc1cccc(C(=O)O)c1Nc1c(S(=O)(=O)N2CCOCC2)cnc2ccc(Cl)cc12 [Compound 284A, 2-[(6-chloro-3-morpholinosulfonyl-4-quinolyl)amino]-3-methoxy-benzoic acid] | 1 to 5 |
| O=C(O)c1cccc(C(F)(F)F)c1Nc1c(S(=O)(=O)N2CCOCC2)cnc2ccc(Cl)cc12 [Compound 285A, 2-[(6-chloro-3-morpholinosulfonyl-4-quinolyl)amino]-3-(trifluoromethyl)benzoic acid] | < 1 |
| O=C(O)c1ccc(B(O)O)cc1Nc1c(S(=O)(=O)N2CCOCC2)cnc2ccc(Cl)cc12 [Compound 289A, 4-borono-2-[(6-chloro-3-morpholinosulfonyl-4-quinolyl)amino]benzoic acid] | > 5 |
| NS(=O)(=O)c1ccc(Nc2c(S(=O)(=O)N3CCOCC3)cnc3ccc(Cl)cc23)c(C(=O)O)c1 [Compound 290A, 2-[(6-chloro-3-morpholinosulfonyl-4-quinolyl)amino]-5-sulfamoyl-benzoic acid] | < 1 |

Next, values leading:

| ΔTm at 100 µM [°C] | SMILES |
| --- | --- |
| > 5 | O=C(O)c1ccccc1Nc1c(S(=O)(=O)N2CCOCC2)cnc2ccc(C(F)(F)F)cc12 [Compound 234A, 2-[[3-morpholinosulfonyl-6-(trifluoromethyl)-4-quinolyl]amino]benzoic acid] |
| 1 to 5 | CC(=O)NS(=O)(=O)c1ccc2ncc(S(=O)(=O)N3CCOCC3)c(Nc3ccccc3C(=O)O)c2c1 [Compound 235A, 2-[[6-(acetylsulfamoyl)-3-morpholinosulfonyl-4-quinolyl]amino]benzoic acid] |
| > 5 | O=C(O)c1ccccc1Nc1c(S(=O)(=O)N2CCOCC2)cnc2ccc(OC(F)F)cc12 [Compound 236A, 2-[[6-(difluoromethoxy)-3-morpholinosulfonyl-4-quinolyl]amino]benzoic acid] |
| < 1 | O=C(O)c1ccccc1Nc1c(S(=O)(=O)N2CCOCC2)cnc2ccc(NC3CCOCC3)cc12 [Compound 237A, 2-[[3-morpholinosulfonyl-6-(tetrahydropyran-4-ylamino)-4-quinolyl]amino]benzoic acid] |
| 1 to 5 | O=C(O)c1ccccc1Nc1c(S(=O)(=O)N2CCOCC2)cnc2ccc(NC3CCC(F)(F)CC3)cc12 [Compound 238A, 2-[[6-[(4,4-difluorocyclohexyl)amino]-3-morpholinosulfonyl-4-quinolyl]amino]benzoic acid] |
| 1 to 5 | O=C(O)c1ccccc1Nc1c(S(=O)(=O)N2CCOCC2)cnc2ccc(NC3CCNCC3)cc12 [Compound 239A, 2-[[3-morpholinosulfonyl-6-(4-piperidylamino)-4-quinolyl]amino]benzoic acid] |
| 1 to 5 | O=C(O)c1ccccc1Nc1c(S(=O)(=O)N2CCOCC2)cnc2ccc(Nc3ccncc3)cc12 [Compound 240A, 2-[[3-morpholinosulfonyl-6-(4-pyridylamino)-4-quinolyl]amino]benzoic acid] |
| > 5 | O=C(O)c1ccccc1Nc1c(S(=O)(=O)N2CCOCC2)cnc2ccc(Nc3ncco3)cc12 [Compound 241A, 2-[[3-morpholinosulfonyl-6-(oxazol-2-ylamino)-4-quinolyl]amino]benzoic acid] |
| 1 to 5 | O=C(O)c1ccccc1Nc1c(S(=O)(=O)N2CCOCC2)cnc2ccc(Nc3ccc4[nH]cnc4c3)cc12 [Compound 247A, 2-[[6-(1H-benzimidazol-5-ylamino)-3-morpholinosulfonyl-4-quinolyl]amino]benzoic acid] |
| 1 to 5 | O=C(O)c1ccccc1Nc1c(S(=O)(=O)N2CCOCC2)cnc2ccc(N3CCOCC3)cc12 [Compound 248A, 2-[(6-morpholino-3-morpholinosulfonyl-4-quinolyl)amino]benzoic acid] |
| > 5 | NS(=O)(=O)c1ccc2ncc(S(=O)(=O)N3CCOCC3)c(Nc3ccccc3C(=O)O)c2c1 [Compound 249A, 2-[(3-morpholinosulfonyl-6-sulfamoyl-4-quinolyl)amino]benzoic acid] |
| > 5 | O=C(O)c1ccccc1Nc1c(S(=O)(=O)N2CCOCC2)cnc2ccccc12 [Compound 250A, 2-[(3-morpholinosulfonyl-4-quinolyl)amino]benzoic acid] |
| > 5 | O=C(O)c1ccc(F)cc1Nc1c(S(=O)(=O)N2CCOCC2)cnc2ccc(Cl)cc12 [Compound 275A, 2-[(6-chloro-3-morpholinosulfonyl-4-quinolyl)amino]-4-fluoro-benzoic acid] |
